Source: publication PMC5372361 (Scientific Reports, 2017)
Where two headings read alike, the source gives them in different places.

Experiments:
human erythrocyte AChE = biological target: T1, human erythrocyte AChE (Homo sapiens, UniProt P22303); assay: biochemical; conditions: for inhibition at 20 µM: read-out: inhibition % at 20 μM, AChE
T1 construct: We used human erythrocyte AChE, equine serum BChE, and porcine liver CaE; purchased Sigma-Aldrich (Germany); host or cells: human erythrocyte
Description: (§1) The AChE and BChE activities were measured by the method of Ellman and co-workers as described earlier[75]. The assay solution consisted of 0.1 M K/Na phosphate buffer (pH 7.5, 25 °C) with the addition of 0.33 mM DTNB, 0.02 unit/mL of AChE or BChE, and 1 mM of substrate (ATCh or BTCh, respectively). The assays were carried out with a blank containing all components except ATCh and BTCh in order to take account of a non-enzymatic reaction.
(§2) The test compounds were dissolved in DMSO; the incubation mixture contained 2% of the solvent. […] The test compounds were added to the assay solution and pre-incubated at 25 °C with the enzymes for 10 min followed by the addition of the substrate. A parallel control was made for the assay solution with no inhibitor. Measurements were performed in a FLUOStar OPTIMA multifunctional reader (BMG Labtech, Germany). Each experiment was performed in triplicate. The results were expressed as the mean ± SEM. The reaction rates in the presence and absence of inhibitor were compared, and the percentage of residual enzyme activity due to the presence of test compounds was calculated.

equine serum BChE = biological target: T2, equine serum BChE (Equus caballus, UniProt P81908); assay: biochemical; conditions: for inhibition at 20 µM: read-out: inhibition % at 20 μM, BChE
T2 construct: We used human erythrocyte AChE, equine serum BChE, and porcine liver CaE; purchased Sigma-Aldrich (Germany); host or cells: equine serum
T2 sequence (P81908 whole entry): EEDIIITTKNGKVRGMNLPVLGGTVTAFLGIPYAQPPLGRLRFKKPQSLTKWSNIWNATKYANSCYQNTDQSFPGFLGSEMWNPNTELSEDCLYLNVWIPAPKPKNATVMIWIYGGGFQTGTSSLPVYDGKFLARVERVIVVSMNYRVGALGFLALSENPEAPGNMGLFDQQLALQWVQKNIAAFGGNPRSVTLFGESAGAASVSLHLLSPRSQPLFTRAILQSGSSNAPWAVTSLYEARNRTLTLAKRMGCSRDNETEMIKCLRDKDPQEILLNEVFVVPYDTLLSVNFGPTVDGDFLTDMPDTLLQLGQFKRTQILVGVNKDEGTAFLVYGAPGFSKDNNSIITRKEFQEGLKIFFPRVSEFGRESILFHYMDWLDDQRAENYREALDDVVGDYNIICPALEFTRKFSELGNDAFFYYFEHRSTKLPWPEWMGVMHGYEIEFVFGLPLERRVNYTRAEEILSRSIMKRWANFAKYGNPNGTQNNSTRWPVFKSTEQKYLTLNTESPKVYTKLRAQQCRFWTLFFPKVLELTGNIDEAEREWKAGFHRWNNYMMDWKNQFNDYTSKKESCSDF
Description: as §1, §2

porcine liver CaE = biological target: T3, porcine liver CaE (Sus scrofa, UniProt Q29550); assay: In vitro CaE inhibition (4-nitrophenyl acetate hydrolysis); assay type: biochemical; conditions: for inhibition at 20 µM: 20 μM of compound
T3 sequence (Q29550 19-566): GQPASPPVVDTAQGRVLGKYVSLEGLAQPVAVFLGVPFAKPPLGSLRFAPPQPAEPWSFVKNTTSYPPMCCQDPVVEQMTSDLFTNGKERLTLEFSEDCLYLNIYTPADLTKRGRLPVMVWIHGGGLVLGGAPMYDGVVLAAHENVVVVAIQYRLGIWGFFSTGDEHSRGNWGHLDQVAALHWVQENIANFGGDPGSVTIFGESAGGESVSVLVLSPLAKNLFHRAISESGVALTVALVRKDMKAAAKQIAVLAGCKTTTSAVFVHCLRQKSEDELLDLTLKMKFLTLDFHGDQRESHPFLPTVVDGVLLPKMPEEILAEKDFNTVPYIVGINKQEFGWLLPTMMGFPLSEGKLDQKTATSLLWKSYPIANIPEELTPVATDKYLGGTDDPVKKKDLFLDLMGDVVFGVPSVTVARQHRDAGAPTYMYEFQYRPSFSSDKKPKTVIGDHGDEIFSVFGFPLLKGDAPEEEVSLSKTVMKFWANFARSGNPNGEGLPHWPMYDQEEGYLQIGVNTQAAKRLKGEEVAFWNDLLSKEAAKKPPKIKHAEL
Description: Acetylcholinesterase (AChE, EC 3.1.1.7, from human erythrocyte), butyrylcholinesterase (BChE, EC 3.1.1.8, from equine serum), carboxylesterase (CaE, EC 3.1.1.1, from porcine liver), acetylthiocholine iodide (ATCh), butylthiocholine iodide (BTCh), 5,5′-dithiobis-(2-nitrobenzoic acid) (DTNB), and 4-nitrophenol acetate (4-NPA), were purchased from Sigma-Aldrich (Germany).
The activity of CaE was determined spectrophotometrically by the release of 4-nitrophenol at 405 nm[76]. The assay solution consisted of 0.1 M K/Na phosphate buffer (pH 8.0, 25 °C) with the addition of 1 mM 4-nitrophenyl acetate and 0.02 unit/mL of CaE. The assays were carried out with a blank containing all components except CaE.
The test compounds were dissolved in DMSO; the incubation mixture contained 2% of the solvent. […] The test compounds were added to the assay solution and pre-incubated at 25 °C with the enzymes for 10 min followed by the addition of the substrate. A parallel control was made for the assay solution with no inhibitor. […] Each experiment was performed in triplicate. The results were expressed as the mean ± SEM. The reaction rates in the presence and absence of inhibitor were compared, and the percentage of residual enzyme activity due to the presence of test compounds was calculated.

tubulin = biological target: T4, tubulin (Sus scrofa, UniProt P02550+P02554); assay: Tubulin polymerization to microtubules (absorbance at 355 nm); assay type: biochemical; conditions: read-out: (dA355/dt)max, % of control
T4 construct: purchased Cytoskeleton, Inc., Denver, USA
T4 sequence (P02550 whole entry): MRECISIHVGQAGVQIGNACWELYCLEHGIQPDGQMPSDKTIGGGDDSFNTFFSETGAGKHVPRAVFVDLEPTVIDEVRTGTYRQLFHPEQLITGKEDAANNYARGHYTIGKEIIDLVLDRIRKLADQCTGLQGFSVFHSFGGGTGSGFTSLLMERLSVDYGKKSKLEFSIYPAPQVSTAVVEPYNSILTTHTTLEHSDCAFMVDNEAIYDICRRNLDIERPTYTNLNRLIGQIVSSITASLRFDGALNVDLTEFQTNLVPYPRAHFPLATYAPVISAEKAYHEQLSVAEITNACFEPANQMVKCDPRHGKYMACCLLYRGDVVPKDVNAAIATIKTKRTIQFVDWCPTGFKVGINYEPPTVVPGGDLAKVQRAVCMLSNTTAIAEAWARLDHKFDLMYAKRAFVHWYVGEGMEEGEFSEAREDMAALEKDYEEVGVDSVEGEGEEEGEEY
T4 sequence (P02554 whole entry): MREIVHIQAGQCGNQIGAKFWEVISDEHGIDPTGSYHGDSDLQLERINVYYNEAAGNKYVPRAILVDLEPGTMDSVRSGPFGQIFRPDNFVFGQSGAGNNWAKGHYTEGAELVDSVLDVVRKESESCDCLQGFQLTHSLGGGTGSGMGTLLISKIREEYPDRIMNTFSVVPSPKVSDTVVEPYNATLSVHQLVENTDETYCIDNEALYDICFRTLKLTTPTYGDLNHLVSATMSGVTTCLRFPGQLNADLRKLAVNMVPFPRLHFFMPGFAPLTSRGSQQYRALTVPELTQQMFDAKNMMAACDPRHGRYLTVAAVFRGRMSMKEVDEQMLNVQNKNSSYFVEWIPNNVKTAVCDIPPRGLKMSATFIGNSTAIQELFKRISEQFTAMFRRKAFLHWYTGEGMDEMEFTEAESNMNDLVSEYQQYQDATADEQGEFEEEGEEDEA
Description: The primary screening for the effect on tubulin polymerization in vitro was performed using a commercial tubulin in the presence of 0.1 mM of the carbazole–aminoadamantane conjugates. In blank probes, tubulin (40 μM) polymerization in the presence of 10% DMSO (as in the case of test probes) leads to absorbance increase after a rather long (80–120 minutes) lag period. […] The results are summarized in Table 3 as the maximum rate of absorbance increase for a tubulin- microtubules suspension normalized to the blank value.
The assembly of tubulin into microtubules was carried out using pure tubulin from HTS- Tubulin polymerization assay kit (Cytoskeleton, Inc., Denver, USA). […] The standard polymerization reaction contained 100 μl of a 4 mg/ml tubulin solution in 80 mM PIPES (pH 6.9), 0.5 mM EGTA, 2 mM MgCl2, and 1 mM GTP. […] The parameter Vmax = (dA355/dt)^max normalized to control probes (%) was used to compare the action of the compounds. Electron microscopic monitoring was carried out on Carl Zeiss Libra 120 Electron Microscope (Carl Zeiss Meditec AG, Jena, Germany) at 120 kV using negative countstaining.

[1] = biological target: T5, MK-801 binding (intrachannel) site of NMDA receptor (Rattus norvegicus, UniProt P35439); assay: Radioligand binding, competition with [3H]MK-801; conditions: rat hippocampal membranes
T5 construct: we used a membrane preparation of rat cerebral hippocampus; from tissue; host or cells: rat hippocampal membranes
Description: (§3) Two radioactive ligands were used: [^3H]
(§4) The obtained membrane pellet was resuspended in a work buffer (5 mM HEPES/4.5 mM Tris buffer, pH 7.6) in a ratio of 1:5 and stored in liquid nitrogen. The reaction mixture (the final volume of 0.5 ml) contained 200 μl of the working buffer, 50 μl of 50 nM radioligand solution, and 250 μl of the membrane suspension. Nonspecific binding was determined in the presence of 50 μl of 1 mM of unlabeled ligand.
(§5) For binding study, the reaction mixture was incubated at room temperature for 2 hours. After incubation, the samples were filtered through GF/B glass-fiber filters (Whatman), washed with the work buffer, dried, and transferred to scintillation vials to which 5 ml of scintillation fluid was added containing 4 g of diphenyloxazole (PPO), 0.2 g of diphenyloxazoil benzene (POPOP), and 1 liter of toluene.
(§6) The effect of the test compounds on the binding of [^3H]

[2] = biological target: T6, ifenprodil binding site of NMDA receptors containing NR2B subunits (Rattus norvegicus, UniProt P35439+Q00960); assay: Radioligand binding, competition with [3H]ifenprodil; conditions: rat hippocampal membranes
T6 construct: we used a membrane preparation of rat cerebral hippocampus; from tissue; host or cells: rat hippocampal membranes
T6 sequence (Q00960 27-1482, other chains not shown): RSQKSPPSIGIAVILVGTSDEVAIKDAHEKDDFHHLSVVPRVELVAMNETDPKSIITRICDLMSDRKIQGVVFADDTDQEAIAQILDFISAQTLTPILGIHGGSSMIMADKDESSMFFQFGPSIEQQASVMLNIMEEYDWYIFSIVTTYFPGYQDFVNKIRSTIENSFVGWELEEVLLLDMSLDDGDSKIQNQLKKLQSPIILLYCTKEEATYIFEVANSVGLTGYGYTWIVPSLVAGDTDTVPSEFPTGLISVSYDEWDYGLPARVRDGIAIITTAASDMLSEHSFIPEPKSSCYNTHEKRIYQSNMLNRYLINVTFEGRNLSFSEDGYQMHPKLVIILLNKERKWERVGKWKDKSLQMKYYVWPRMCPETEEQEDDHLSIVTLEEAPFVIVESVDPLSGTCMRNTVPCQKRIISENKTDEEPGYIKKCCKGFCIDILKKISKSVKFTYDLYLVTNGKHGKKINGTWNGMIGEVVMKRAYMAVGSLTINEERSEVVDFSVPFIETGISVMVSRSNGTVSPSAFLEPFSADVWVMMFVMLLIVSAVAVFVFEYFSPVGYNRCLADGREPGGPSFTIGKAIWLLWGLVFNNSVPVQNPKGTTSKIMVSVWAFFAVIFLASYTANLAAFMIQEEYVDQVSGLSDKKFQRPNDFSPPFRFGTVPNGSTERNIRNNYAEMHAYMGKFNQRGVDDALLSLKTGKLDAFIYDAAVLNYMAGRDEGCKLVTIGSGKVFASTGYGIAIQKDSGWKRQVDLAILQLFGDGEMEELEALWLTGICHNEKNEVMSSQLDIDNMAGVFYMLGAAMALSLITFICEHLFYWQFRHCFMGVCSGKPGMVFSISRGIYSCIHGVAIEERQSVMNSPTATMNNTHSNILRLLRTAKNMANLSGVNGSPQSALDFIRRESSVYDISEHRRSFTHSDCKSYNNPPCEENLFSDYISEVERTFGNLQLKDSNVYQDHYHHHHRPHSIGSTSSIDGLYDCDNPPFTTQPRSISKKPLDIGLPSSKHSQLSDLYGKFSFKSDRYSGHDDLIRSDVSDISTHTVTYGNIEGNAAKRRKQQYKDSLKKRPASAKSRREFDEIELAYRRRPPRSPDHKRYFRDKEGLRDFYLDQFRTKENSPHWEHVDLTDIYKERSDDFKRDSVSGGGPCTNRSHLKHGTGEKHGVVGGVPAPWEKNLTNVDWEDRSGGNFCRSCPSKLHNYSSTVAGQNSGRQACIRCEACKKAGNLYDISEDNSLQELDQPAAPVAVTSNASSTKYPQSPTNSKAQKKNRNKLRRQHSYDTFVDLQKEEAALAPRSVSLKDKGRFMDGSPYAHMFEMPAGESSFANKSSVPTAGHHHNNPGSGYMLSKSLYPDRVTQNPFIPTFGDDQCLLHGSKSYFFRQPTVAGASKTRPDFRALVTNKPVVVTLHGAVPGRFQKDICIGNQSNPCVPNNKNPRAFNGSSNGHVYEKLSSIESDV
Description: as §3, §4, §5, §6

[3] = system: SH-SY5Y neuroblastoma cells; assay: Ionomycin-induced toxicity in SH-SY5Y neuroblastoma cells (MTT test); assay type: cell-based, human; conditions: 3 μM ionomycin, 24 hours
Description: The human neuroblastoma cell line SH-SY5Y was used for all experiments. The cells were cultured in a humidified, 5% (v/v) CO2-controlled environment at 37 °C, and grown in MEM/F12 culture medium supplemented with 15% fetal bovine serum (FBS), 100 U/mL penicillin, and […][90].
The cell viability was evaluated as the dehydrogenase activity with the 3-(4,5-dimethylthiazol-2-yl)-2,5-diphenyltetrazolium bromide (MTT) assay. Briefly, the SH-SY5Y cells were incubated with 0.1 and 1 μM of a test compound or an equal volume of the vehicle (<1% of the whole volume of the medium under the layer of cells) and 3 μM ionomycine for 24 h. The absorbance was measured at 570 nm using a Victor microplate reader (Perkin Elmer).

[4] = equine serum BChE, pH 7.5, 25 °C, 10 min pre-incubation, read-out: IC50 ± SEM, BChE

T1 sequence (P22303 32-617 isoform P22303-2 limits assumed): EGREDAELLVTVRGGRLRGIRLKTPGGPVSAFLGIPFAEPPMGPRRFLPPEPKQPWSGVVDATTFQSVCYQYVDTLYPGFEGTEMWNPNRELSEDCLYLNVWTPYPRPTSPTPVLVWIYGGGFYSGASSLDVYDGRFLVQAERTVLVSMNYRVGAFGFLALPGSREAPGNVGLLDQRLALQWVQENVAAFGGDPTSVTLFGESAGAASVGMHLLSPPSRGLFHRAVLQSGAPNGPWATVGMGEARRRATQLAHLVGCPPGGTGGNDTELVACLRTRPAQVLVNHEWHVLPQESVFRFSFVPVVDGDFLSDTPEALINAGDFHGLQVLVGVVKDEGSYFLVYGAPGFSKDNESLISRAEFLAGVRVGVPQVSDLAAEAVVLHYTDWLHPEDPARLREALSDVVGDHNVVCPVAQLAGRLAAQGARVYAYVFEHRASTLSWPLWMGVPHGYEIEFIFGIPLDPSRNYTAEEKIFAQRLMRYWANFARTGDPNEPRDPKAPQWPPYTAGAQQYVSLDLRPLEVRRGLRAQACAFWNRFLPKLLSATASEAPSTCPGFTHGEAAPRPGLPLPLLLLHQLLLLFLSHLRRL

SMILES	inhibition at 20 µM (human erythrocyte AChE) [%]	inhibition at 20 µM (equine serum BChE) [%]	inhibition at 20 µM (porcine liver CaE) [%]	maximum polymerization rate, % of control at 100 µM (tubulin) [%]	IC50 (equine serum BChE; [4]) [µM]	% of [3H]МК-801 blockade at 100 μM of compound [1] [%]	% of [3H]ifenprodil blockade at 100 μM of compound [2] [%]	also measured
c1ccc2c(c1)[nH]c1ccccc12 [Carbazole]	1.8	16.1	9.4	123 ± 12				IC50 (human erythrocyte AChE): > 20 µM; IC50 (equine serum BChE): > 20 µM
NC12CC3CC(CC(C3)C1)C2 [Amantadine]			3.2		> 20	57.2 ± 5.5	44.6 ± 4.6	inhibition at 20 µM (equine serum BChE; 20 μM of compound): 6.9%; remaining activity at 100 µM (tubulin; at 100 μM of compound, 100% = vehicle control (10% DMSO)): 98 ± 16%
C[C@H](CCC(=O)O)C[C@H](C)C[C@H](C)C(=O)/C=C(\O)[C@H](C)C[C@H](C)C/C=C/[C@@H](C)[C@@H](O)[C@@H](C)[C@@H](O)C[C@@H]1CC[C@@](C)([C@H]2CC[C@@](C)([C@@H](C)O)O2)O1 [ionomycin]								reduction of neuroblastoma cell survival [3]: 36 ± 4%
O=[N+]([O-])c1ccc(OP(=O)(O)Oc2ccc([N+](=O)[O-])cc2)cc1 [BNPP, Bis-4-nitrophenyl phosphate]								IC50 (porcine liver CaE; porcine liver CaE, pH 8.0, 25 °C, read-out: IC50 ± SEM, CaE): 1.8 ± 0.11 µM
CC12CC3CC(C)(C1)CC(N)(C3)C2.Cl [Memantine, 1-amino-3,5-dimethyladamantane hydrochloride]	1.3	13.7	3	89 ± 7	> 20	100	11.2 ± 1.1	IC50 (human erythrocyte AChE; read-out: IC50 ± SEM, AChE): > 20 µM
CC(=O)O[C@H]1C(=O)[C@@]2(C)[C@H]([C@H](OC(=O)c3ccccc3)[C@]3(O)C[C@H](OC(=O)[C@H](O)[C@@H](NC(=O)c4ccccc4)c4ccccc4)C(C)=C1C3(C)C)[C@]1(OC(C)=O)CO[C@@H]1C[C@@H]2O [Paclitaxel]								remaining activity at 5 µM (tubulin; 5 μM, 100% = vehicle control (10% DMSO)): 487 ± 32%
